Common to all, as to type: biochemical
The target of one test is T1, LATS1 (Homo sapiens, UniProt O95835).
T1 sequence (O95835 1-1130): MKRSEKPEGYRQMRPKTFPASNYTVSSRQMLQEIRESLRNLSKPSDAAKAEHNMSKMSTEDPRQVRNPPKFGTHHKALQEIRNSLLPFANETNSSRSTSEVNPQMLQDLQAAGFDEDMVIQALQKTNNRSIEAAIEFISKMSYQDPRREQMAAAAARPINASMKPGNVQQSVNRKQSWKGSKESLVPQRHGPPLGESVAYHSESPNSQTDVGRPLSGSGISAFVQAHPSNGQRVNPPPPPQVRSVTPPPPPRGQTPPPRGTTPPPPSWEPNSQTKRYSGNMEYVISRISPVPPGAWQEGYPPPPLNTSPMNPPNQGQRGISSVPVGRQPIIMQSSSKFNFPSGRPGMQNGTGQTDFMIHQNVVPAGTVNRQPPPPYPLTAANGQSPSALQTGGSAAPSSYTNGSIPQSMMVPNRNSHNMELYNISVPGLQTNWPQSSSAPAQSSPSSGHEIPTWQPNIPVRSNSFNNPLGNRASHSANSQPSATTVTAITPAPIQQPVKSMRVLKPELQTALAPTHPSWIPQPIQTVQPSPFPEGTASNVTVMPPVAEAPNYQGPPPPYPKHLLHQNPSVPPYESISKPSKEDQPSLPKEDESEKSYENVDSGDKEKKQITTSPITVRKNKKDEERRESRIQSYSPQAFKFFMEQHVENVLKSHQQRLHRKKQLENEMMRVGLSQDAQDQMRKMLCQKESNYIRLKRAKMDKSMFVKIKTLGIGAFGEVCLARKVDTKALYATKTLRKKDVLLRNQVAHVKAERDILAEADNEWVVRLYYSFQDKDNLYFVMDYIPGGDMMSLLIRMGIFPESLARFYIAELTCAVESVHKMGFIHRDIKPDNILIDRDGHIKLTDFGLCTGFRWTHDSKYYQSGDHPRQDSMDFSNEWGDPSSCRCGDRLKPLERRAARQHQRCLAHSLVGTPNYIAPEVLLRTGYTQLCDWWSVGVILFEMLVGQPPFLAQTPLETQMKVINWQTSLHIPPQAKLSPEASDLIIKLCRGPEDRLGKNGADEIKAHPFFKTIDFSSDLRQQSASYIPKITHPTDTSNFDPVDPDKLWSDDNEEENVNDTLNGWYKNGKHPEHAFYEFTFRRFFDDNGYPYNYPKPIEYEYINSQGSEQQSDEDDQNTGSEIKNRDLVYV
Briefly: RBC HotSpot kinase assay (33P-ATP, P81 filter-binding), LATS1. To be noted: Table 28, biochemical kinase assay; read-out: LATS1 IC50. In short, it runs like this:
(§1)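 Radiometric 33P-ATP kinase reaction in 20 mM Hepes pH 7.5, 10 mM MgCl2, 1 mM EGTA, 0.01% Brij35, 0.02 mg/ml BSA, 0.1 mM Na3VO4, 2 mM DTT, 1% DMSO. Compound preincubated with kinase and substrate 20 min, then 2 h at room temperature; P81 filter-binding read-out. IC50 (nM) from 10-point singlet curves.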

In the next test the target is T2, LATS2 (Homo sapiens, UniProt Q9NRM7).
T2 sequence (Q9NRM7 1-1088): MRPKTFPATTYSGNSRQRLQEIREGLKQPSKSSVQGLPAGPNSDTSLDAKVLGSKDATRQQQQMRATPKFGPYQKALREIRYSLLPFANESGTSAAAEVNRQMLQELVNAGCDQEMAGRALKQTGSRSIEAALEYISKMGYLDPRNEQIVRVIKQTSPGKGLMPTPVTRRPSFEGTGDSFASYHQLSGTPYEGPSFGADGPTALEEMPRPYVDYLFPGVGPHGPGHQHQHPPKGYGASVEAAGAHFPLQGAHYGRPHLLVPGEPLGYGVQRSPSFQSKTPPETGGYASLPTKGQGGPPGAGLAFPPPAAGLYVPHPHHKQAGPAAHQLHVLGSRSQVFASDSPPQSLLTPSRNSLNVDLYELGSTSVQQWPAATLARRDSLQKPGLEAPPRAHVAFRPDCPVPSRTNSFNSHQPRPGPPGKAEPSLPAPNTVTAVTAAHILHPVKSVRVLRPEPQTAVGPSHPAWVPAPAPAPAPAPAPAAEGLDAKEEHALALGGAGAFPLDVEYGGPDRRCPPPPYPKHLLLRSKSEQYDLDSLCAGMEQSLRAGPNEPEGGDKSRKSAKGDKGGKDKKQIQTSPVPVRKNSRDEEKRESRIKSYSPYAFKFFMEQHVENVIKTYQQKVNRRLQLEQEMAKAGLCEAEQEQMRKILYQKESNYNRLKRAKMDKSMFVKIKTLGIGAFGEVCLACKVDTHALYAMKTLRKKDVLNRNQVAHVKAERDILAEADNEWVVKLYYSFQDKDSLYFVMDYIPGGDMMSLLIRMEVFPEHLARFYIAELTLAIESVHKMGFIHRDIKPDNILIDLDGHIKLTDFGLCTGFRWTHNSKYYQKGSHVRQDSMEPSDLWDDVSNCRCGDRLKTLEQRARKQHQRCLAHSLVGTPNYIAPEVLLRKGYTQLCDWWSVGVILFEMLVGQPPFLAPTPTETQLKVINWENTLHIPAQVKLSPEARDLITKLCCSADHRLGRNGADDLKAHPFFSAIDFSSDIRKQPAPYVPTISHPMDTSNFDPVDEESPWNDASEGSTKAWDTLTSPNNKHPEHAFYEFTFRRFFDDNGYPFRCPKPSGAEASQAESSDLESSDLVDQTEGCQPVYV
The experiment in a line: RBC HotSpot kinase assay (33P-ATP, P81 filter-binding), LATS2. Conditions: Table 28, biochemical kinase assay; read-out: LATS2 IC50. In short, it runs like this: as §1

The next test has as its target AKT (Homo sapiens, UniProt P31749). The experiment in a line: RBC HotSpot kinase assay (33P-ATP, P81 filter-binding), AKT. Conditions: Table 28, biochemical kinase assay; read-out: AKT IC50. In a few lines:
as §1

This is an account of results in patent publication US20250361230A1, “LATS Inhibitors and Uses Thereof” (The USA, as Represented by the Secretary, Dept. of Heath …, priority 2022, published 2025).

The term IC50 denotes the concentration that gives 50% inhibition.

The structures appear in SMILES notation. Some results are limits rather than exact numbers.

Chain of AKT (P31749 whole entry): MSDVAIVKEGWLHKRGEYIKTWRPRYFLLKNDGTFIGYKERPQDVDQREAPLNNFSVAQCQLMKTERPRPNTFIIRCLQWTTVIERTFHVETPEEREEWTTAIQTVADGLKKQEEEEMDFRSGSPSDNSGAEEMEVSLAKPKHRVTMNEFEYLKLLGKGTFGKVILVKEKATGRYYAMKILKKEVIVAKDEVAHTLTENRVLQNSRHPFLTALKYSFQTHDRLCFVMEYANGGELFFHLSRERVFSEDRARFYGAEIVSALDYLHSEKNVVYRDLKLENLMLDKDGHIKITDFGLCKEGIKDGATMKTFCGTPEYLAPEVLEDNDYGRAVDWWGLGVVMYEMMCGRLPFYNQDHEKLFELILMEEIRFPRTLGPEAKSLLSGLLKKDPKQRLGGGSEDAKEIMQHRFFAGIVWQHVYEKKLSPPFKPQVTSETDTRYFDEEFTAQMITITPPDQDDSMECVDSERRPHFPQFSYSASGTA

Regarding `COCCN1CCC(c2ccc(-c3ccnc4[nH]cc(F)c34)cc2Cl)CC1` [Compound 158, 4-(3-chloro-4-(1-(2-methoxyethyl)piperidin-4-yl)phenyl)-3-fluoro-1H-pyrrolo[2,3-b]pyridine], the IC50 worked out at 29 nM at LATS1, 56 nM on LATS2 and 1150 nM on AKT.
For `CN(C)CCS(=O)(=O)N1CCC(c2ccc(-c3ccnc4[nH]cc(F)c34)cc2Cl)CC1` [Compound 159, 2-((4-(2-chloro-4-(3-fluoro-1H-pyrrolo[2,3-b]pyridin-4-yl)phenyl)piperidin-1-yl)sulfonyl)-N,N-dimethylethan-1-amine] the same measures were 174 nM, 139 nM and 8520 nM.
As for `O=C(C1CC1)N1CCC(c2ccc(-c3ccnc4[nH]cc(F)c34)cc2Cl)CC1` [Compound 160, (4-(2-chloro-4-(3-fluoro-1H-pyrrolo[2,3-b]pyridin-4-yl)phenyl)piperidin-1-yl)(cyclopropyl)methanone], the half-maximal inhibitory concentration (IC50) at LATS1 is 451 nM; at LATS2 it was 442 nM; on AKT, > 10000 nM.
Turning to `Clc1cc(-c2ccnc3[nH]ccc23)ccc1C1CCNCC1` [Compound 161, 4-(3-chloro-4-(piperidin-4-yl)phenyl)-1H-pyrrolo[2,3-b]pyridine], the IC50 on LATS1 is 8.9 nM; on LATS2, 21 nM; on AKT, 753 nM.
Turning to `C[Si](C)(C)CCS(=O)(=O)N1CCC(c2ccc(-c3ccnc4[nH]cc(F)c34)cc2Cl)CC1` [Compound 162, 4-(3-chloro-4-(1-((2-(trimethylsilyl)ethyl)sulfonyl)piperidin-4-yl)phenyl)-3-fluoro-1H-pyrrolo[2,3-b]pyridine], the IC50 on LATS1, at LATS2 and at AKT was > 10000 nM throughout.
For the compound `O=S(=O)(CCC1CC1)N1CCC(c2ccc(-c3ccnc4[nH]cc(F)c34)cc2Cl)CC1` [Compound 163, 4-(3-chloro-4-(1-((2-cyclopropylethyl)sulfonyl)piperidin-4-yl)phenyl)-3-fluoro-1H-pyrrolo[2,3-b]pyridine], the IC50 at LATS1, on LATS2 and on AKT was > 10000 nM in each case.
With `CCOCCS(=O)(=O)N1CCC(c2ccc(-c3ccnc4[nH]cc(F)c34)cc2Cl)CC1` [Compound 164, 4-(3-chloro-4-(1-((2-ethoxyethyl)sulfonyl)piperidin-4-yl)phenyl)-3-fluoro-1H-pyrrolo[2,3-b]pyridine], the concentration for half-maximal inhibition (IC50) at LATS1, at LATS2 and at AKT was > 10000 nM in each case.
For `O=C([C@H]1CCCN1)N1CCC(c2ccc(-c3ccnc4[nH]cc(F)c34)cc2Cl)CC1` [Compound 165, (R)-4-(3-chloro-4-(1-prolylpiperidin-4-yl)phenyl)-3-fluoro-1H-pyrrolo[2,3-b]pyridine], the results for the IC50 at LATS1, on LATS2 and on AKT were 32.1 nM, 36.9 nM and 1510 nM, respectively.
For `O=C([C@@H]1CCCN1)N1CCC(c2ccc(-c3ccnc4[nH]cc(F)c34)cc2Cl)CC1` [Compound 166, (S)-4-(3-chloro-4-(1-prolylpiperidin-4-yl)phenyl)-3-fluoro-1H-pyrrolo[2,3-b]pyridine] the same measures were 10.7 nM, 15.5 nM and 1300 nM.
For `CN1CCC(c2ccc(-c3ccnc4[nH]cc(F)c34)cc2Cl)CC1` [Compound 167, 4-(3-chloro-4-(1-methylpiperidin-4-yl)phenyl)-3-fluoro-1H-pyrrolo[2,3-b]pyridine] the same measures were 18 nM, 31 nM and 1520 nM.
Regarding `CC(C)(C)OC(=O)N1CCC(c2ccc(-c3ccnc4[nH]cc(F)c34)cc2Cl)CC1` [Compound 170, tert-butyl 4-(2-chloro-4-(3-fluoro-1H-pyrrolo[2,3-b]pyridin-4-yl)phenyl)piperidine-1-carboxylate], the IC50 on LATS1, on LATS2 and at AKT was > 10000 nM throughout.
Consider `CC(=O)N1CCC(c2ccc(-c3ccnc4[nH]cc(F)c34)cc2Cl)CC1` [Compound 171, 1-(4-(2-chloro-4-(3-fluoro-1H-pyrrolo[2,3-b]pyridin-4-yl)phenyl)piperidin-1-yl)ethan-1-one], for which the IC50 came to 69 nM on LATS1, 100 nM on LATS2 and 5400 nM on AKT.
`N#Cc1cc(C2CCNCC2)ccc1-c1ccnc2[nH]ccc12` [Compound 174, 5-(piperidin-4-yl)-2-(1H-pyrrolo[2,3-b]pyridin-4-yl)benzonitrile]: the results for the IC50 at LATS1, on LATS2 and on AKT were 4930 nM, 2410 nM and 9000 nM, respectively.
The matching figures for `c1cc(-c2ccc(C3CCNCC3)cn2)c2cc[nH]c2n1` [Compound 175, 4-(5-(piperidin-4-yl)pyridin-2-yl)-1H-pyrrolo[2,3-b]pyridine]: 56 nM, 142 nM and 7000 nM.
Consider `Cc1cc(C2CCNCC2)ccc1-c1ccnc2[nH]ccc12` [Compound 176, 4-(2-methyl-4-(piperidin-4-yl)phenyl)-1H-pyrrolo[2,3-b]pyridine], for which the IC50 at LATS1 is 1100 nM; on LATS2, 2140 nM; on AKT it was > 10000 nM.
Turning to `c1cc(-c2ccc(C3CCNCC3)nc2)c2cc[nH]c2n1` [Compound 178, 4-(6-(piperidin-4-yl)pyridin-3-yl)-1H-pyrrolo[2,3-b]pyridine], the IC50 turned out to be 63 nM on LATS1, 71 nM on LATS2 and 640 nM at AKT.
The matching figures for `COc1cc(C2CCNCC2)ccc1-c1ccnc2[nH]ccc12` [Compound 179, 4-(2-methoxy-4-(piperidin-4-yl)phenyl)-1H-pyrrolo[2,3-b]pyridine]: 1080 nM, 1290 nM and 5660 nM.
Consider `COc1cc(-c2ccnc3[nH]ccc23)ccc1C1CCNCC1` [Compound 180, 4-(3-methoxy-4-(piperidin-4-yl)phenyl)-1H-pyrrolo[2,3-b]pyridine], for which the IC50 on LATS1 turned out to be 69 nM; at LATS2, 84 nM; on AKT it was 2570 nM.
`Fc1cc(C2CCNCC2)ccc1-c1ccnc2[nH]ccc12` [Compound 181, 4-(2-fluoro-4-(piperidin-4-yl)phenyl)-1H-pyrrolo[2,3-b]pyridine]: the IC50 stood at 68 nM on LATS1, 87 nM at LATS2 and 3360 nM on AKT.
